# Data: patent publication US20240067668A1, “HETEROARYL DERIVATIVE COMPOUND AND USE THEREOF” (VORONOI INC., priority 2020, published 2024)
# What was measured:
# [1] = tested on: BaF3-EGFR (Del19/T790M/C797S) cells; test: Inhibitory activity on Ba/F3 cell proliferation (CellTiter-Glo, 72 hours); format: cell-based; conditions: Ba/F3 cells expressing EGFR Del19/T790M/C797S
# In short: (§1)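 Ba/F3 cells expressing wild-type EGFR or EGFR Del19/T790M/C797S, 3×10^3 per well, exposed 72 h at 37 °C to compound at 12 threefold dilutions, 0.00005-10 μM final. Viability by CellTiter-Glo 2.0; GI50 derived from growth relative to DMSO-treated cells.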
# BaF3-EGFR (WT) cells = test: as above; format: cell-based; conditions: Ba/F3 cells expressing EGFR WT
# In short: as §1
# EGFR Del19/T790M/C797S = EGFR Del19/T790M/C797S (Homo sapiens, UniProt P00533, C797S/T790M, form not given); test: Enzyme IC50, EGFR Del19/T790M/C797S; format: biochemical
# Chain of EGFR Del19/T790M/C797S (P00533 25-1210 T790M/C797S, form open): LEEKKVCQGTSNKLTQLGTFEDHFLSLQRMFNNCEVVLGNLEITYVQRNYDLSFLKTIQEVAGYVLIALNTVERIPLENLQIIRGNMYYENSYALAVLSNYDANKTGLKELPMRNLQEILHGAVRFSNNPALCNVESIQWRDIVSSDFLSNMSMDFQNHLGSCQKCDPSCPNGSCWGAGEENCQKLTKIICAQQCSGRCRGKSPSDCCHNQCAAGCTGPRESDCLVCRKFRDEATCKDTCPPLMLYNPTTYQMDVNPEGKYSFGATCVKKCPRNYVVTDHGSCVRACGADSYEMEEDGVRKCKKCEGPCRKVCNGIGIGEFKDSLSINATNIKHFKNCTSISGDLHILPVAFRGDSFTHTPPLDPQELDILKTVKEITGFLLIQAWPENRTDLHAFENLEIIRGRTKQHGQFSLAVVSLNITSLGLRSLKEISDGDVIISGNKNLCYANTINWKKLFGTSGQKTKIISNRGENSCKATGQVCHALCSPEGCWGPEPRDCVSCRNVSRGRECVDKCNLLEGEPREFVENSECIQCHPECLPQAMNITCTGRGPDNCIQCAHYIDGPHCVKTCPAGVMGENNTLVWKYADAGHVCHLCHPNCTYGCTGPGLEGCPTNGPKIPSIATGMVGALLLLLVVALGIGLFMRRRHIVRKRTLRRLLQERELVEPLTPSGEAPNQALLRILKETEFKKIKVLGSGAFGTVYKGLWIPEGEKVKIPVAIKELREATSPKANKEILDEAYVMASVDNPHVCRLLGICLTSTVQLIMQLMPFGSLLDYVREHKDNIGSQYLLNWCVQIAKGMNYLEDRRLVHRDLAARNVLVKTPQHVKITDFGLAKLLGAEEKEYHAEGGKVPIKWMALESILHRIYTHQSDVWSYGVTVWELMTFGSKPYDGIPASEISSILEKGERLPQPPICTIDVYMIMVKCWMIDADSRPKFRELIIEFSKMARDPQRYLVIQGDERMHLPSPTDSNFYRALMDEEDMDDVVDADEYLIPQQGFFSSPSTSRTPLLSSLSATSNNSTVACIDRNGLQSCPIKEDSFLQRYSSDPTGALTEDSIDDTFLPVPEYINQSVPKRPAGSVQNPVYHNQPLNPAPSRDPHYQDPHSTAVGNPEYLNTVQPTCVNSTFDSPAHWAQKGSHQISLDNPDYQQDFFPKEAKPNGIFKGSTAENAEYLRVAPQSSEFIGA
Compound,GI50 [1],GI50 (BaF3-EGFR (WT) cells),IC50 (EGFR Del19/T790M/C797S)
"COc1cc(N2CCC(N3CCN(C)CC3)CC2)c(-c2cnn(C)c2)cc1Nc1nc(Nc2ccc3nccnc3c2P(C)(C)=O)c2nc[nH]c2n1 [Example 105, (6-((2-((2-methoxy-5-(1-methyl-1H-pyrazol-4-yl)-4-(4-(4-methylpiperazin-1-yl)piperidin-1-yl)phenyl)amino)-9H-purin-6-yl)amino)quinoxalin-5-yl)dimethyl-phosphine oxide]",> 0.1 µM,> 0.1 µM,≤ 0.05 µM
"Cn1cc(-c2cc(Nc3nc(Nc4ccc5nccnc5c4P(C)(C)=O)c4cc[nH]c4n3)c(OCC(F)(F)F)cc2F)cn1 [Example 3, (6-((2-((4-fluoro-5-(1-methyl-1H-pyrazol-4-yl)-2-(2,2,2-trifluoroethoxy)phenyl)amino)-7H-pyrrolo[2,3-d]pyrimidin-4-yl)amino)quinoxalin-5-yl) dimethyl-phosphine oxide]",> 0.1 µM,> 0.1 µM,≤ 0.05 µM
"COc1cc(N2CCN(C)CC2)c(-c2ccncc2)cc1Nc1nc(Nc2ccc3nccnc3c2P(C)(C)=O)c2cc[nH]c2n1 [Example 70, (6-((2-((2-methoxy-4-(4-methylpiperazin-1-yl)-5-(pyridin-4-yl)phenyl)amino)-7H-pyrrolo[2,3-d]pyrimidin-4-yl)amino)quinoxalin-5-yl)dimethyl-phosphine oxide]",> 0.1 µM,> 0.1 µM,≤ 0.05 µM
"Cn1nccc1-c1ccc(Nc2nc(Nc3ccc4nccnc4c3P(C)(C)=O)c3cc[nH]c3n2)c2c1OCCO2 [Example 131, dimethyl (6-((2-((8-(1-methyl-1H-pyrazol-5-yl)-2,3-dihydrobenzo [b][1,4]dioxin-5-yl)amino)-7H-pyrrolo[2,3-d]pyrimidin-4-yl)amino)quinoxalin-5-yl)phosphine oxide]",> 0.1 µM,> 0.1 µM,> 0.1 µM
"COc1cc(N2CCC3(CCN(C(=O)C4(F)CC4)CC3)CC2)c(-c2cnn(C)c2)cc1Nc1nc(Nc2ccc3nccnc3c2P(C)(C)=O)c2cc[nH]c2n1 [Example 111, (9-(4-((4-((5-(dimethyl-phosphoryl)quinoxalin-6-yl)amino)-7H-pyrrolo[2,3-d]pyrimidin-2-yl)amino)-5-methoxy-2-(1-methyl-1H-pyrazol-4-yl)phenyl)-3,9-diazaspiro[5.5]undecan-3-yl)(1-fluorocyclo-propyl) methanone]",≤ 0.05 µM,> 0.1 µM,> 0.1 µM
"C=CC(=O)Nc1cc(Nc2nc(Nc3ccc4nccnc4c3P(C)(C)=O)c3cc[nH]c3n2)c2c(c1N1CCC(N3CCN(C4CC4)CC3)CC1)OCCO2 [Example 133, N-(5-(4-(4-cyclopropyl-piperazin-1-yl)piperidin-1-yl)-8-((4-((5-(dimethyl-phosphoryl)quinoxalin-6-yl)amino)-7H-pyrrolo[2,3-d]pyrimidin-2-yl)amino)-2,3-dihydrobenzo [b][1,4]dioxin-6-yl)acrylamide]",> 0.1 µM,≤ 0.05 µM,≤ 0.05 µM
"COc1cc(N2CCC(N3CCN(C(C)C)CC3)CC2)c(C)cc1Nc1nc(Nc2ccc3nccnc3c2P(C)(C)=O)c2cc[nH]c2n1 [Example 62, (6-((2-((4-(4-(4-isopropyl-piperazin-1-yl)piperidin-1-yl)-2-methoxy-5-methylphenyl)amino)-7H-pyrrolo[2,3-d]pyrimidin-4-yl)amino)quinoxalin-5-yl)dimethyl-phosphine oxide]",0.05 to 0.1 µM,> 0.1 µM,≤ 0.05 µM

# Results, then the compound that gave them:
GI50 [1],GI50 (BaF3-EGFR (WT) cells),IC50 (EGFR Del19/T790M/C797S),Compound
> 0.1 µM,> 0.1 µM,≤ 0.05 µM,"CCN1CCN(c2cc(OC)c(Nc3nc(Nc4ccc5nccnc5c4P(C)(C)=O)c4cc[nH]c4n3)cc2-c2cnn(C(C)C)c2)CC1 [Example 48, (6-((2-((4-(4-ethylpiperazin-1-yl)-5-(1-isopropyl-1H-pyrazol-4-yl)-2-methoxyphenyl)amino)-7H-pyrrolo[2,3-d]pyrimidin-4-yl)amino)quinoxalin-5-yl)dimethyl-phosphine oxide]"
> 0.1 µM,> 0.1 µM,≤ 0.05 µM,"COc1cc(N2CCN(C)CC2)c(-c2ccccc2)cc1Nc1nc(Nc2ccc3nccnc3c2P(C)(C)=O)c2cc[nH]c2n1 [Example 72, (6-((2-((4-methoxy-6-(4-methylpiperazin-1-yl)-[1,1′-biphenyl]-3-yl)amino)-7H-pyrrolo[2,3-d]pyrimidin-4-yl)amino)quinoxalin-5-yl)dimethyl-phosphine oxide]"
≤ 0.05 µM,> 0.1 µM,≤ 0.05 µM,"COc1cc(N2CCN(CC3(F)CC3)CC2)c(-c2cnn(C)c2)cc1Nc1nc(Nc2ccc3nccnc3c2P(C)(C)=O)c2cc[nH]c2n1 [Example 113, (6-((2-((4-(4-((1-fluorocyclo-propyl)methyl)piperazin-1-yl)-2-methoxy-5-(1-methyl-1H-pyrazol-4-yl)phenyl)amino)-7H-pyrrolo[2,3-d]pyrimidin-4-yl)amino)quinoxalin-5-yl)dimethyl-phosphine oxide]"
> 0.1 µM,> 0.1 µM,> 0.1 µM,"Cn1cc(-c2cc(N3CCOCC3)c3c(c2Nc2nc(Nc4ccc5nccnc5c4P(C)(C)=O)c4cc[nH]c4n2)OCCO3)cn1 [Example 135, dimethyl (6-((2-((6-(1-methyl-1H-pyrazol-4-yl)-8-morpholino-2,3-dihydrobenzo [b][1,4]dioxin-5-yl)amino)-7H-pyrrolo[2,3-d]pyrimidin-4-yl)amino)quinoxalin-5-yl)phosphine oxide]"
≤ 0.05 µM,> 0.1 µM,≤ 0.05 µM,"COc1cc(N2C[C@H]3CC[C@@H](C2)O3)c(-c2cnn(C)c2)cc1Nc1nc(Nc2ccc3nccnc3c2P(C)(C)=O)c2cc[nH]c2n1 [Example 30, (6-((2-((4-((1R,5S)-8-oxa-3-azabicyclo [3.2.1]octan-3-yl)-2-methoxy-5-(1-methyl-1H-pyrazol-4-yl)phenyl)amino)-7H-pyrrolo[2,3-d]pyrimidin-4-yl)amino)quinoxalin-5-yl)dimethyl-phosphine oxide]"
> 0.1 µM,0.05 to 0.1 µM,≤ 0.05 µM,"C=CC(=O)Nc1cc(Nc2nc(Nc3ccc4nccnc4c3P(C)(C)=O)c3cc[nH]c3n2)c(OC)cc1N1CCN(C)CC1 [Example 73, N-(5-((4-((5-(dimethyl-phosphoryl)quinoxalin-6-yl)amino)-7H-pyrrolo[2,3-d]pyrimidin-2-yl)amino)-4-methoxy-2-(4-methylpiperazin-1-yl)phenyl) acrylamide]"
> 0.1 µM,> 0.1 µM,≤ 0.05 µM,"COc1cc(N2CC3(CCOCC3)C2)c(-c2cnn(C)c2)cc1Nc1nc(Nc2ccc3nccnc3c2P(C)(C)=O)c2cc[nH]c2n1 [Example 33, (6-((2-((2-methoxy-5-(1-methyl-1H-pyrazol-4-yl)-4-(7-oxa-2-azaspiro[3.5]nonane-2-yl)phenyl)amino)-7H-pyrrolo[2,3-d]pyrimidin-4-yl)amino)quinoxalin-5-yl)dimethyl-phosphine oxide]"
> 0.1 µM,> 0.1 µM,≤ 0.05 µM,"COc1ccc(C)cc1Nc1nc(Nc2ccc3nccnc3c2P(C)(C)=O)c2cc[nH]c2n1 [Example 68, (6-((2-((2-methoxy-5-methylphenyl)amino)-7H-pyrrolo[2,3-d]pyrimidin-4-yl)amino)quinoxalin-5-yl)dimethyl-phosphine oxide]"
